Source: BindingDB's records for doi:10.1016/j.bmcl.2009.03.150 (Gsk, 2009)

Legend:
Experiment in all cases: Enzyme Inhibition Assay
Beta-secretase 1 = Beta-secretase 1 (Homo sapiens, UniProt P56817); conditions: pH 4.5; 22 °C
Beta-secretase 2 = target: T1, Beta-secretase 2 (Homo sapiens, UniProt Q9Y5Z0)
T1 sequence (Q9Y5Z0 whole entry): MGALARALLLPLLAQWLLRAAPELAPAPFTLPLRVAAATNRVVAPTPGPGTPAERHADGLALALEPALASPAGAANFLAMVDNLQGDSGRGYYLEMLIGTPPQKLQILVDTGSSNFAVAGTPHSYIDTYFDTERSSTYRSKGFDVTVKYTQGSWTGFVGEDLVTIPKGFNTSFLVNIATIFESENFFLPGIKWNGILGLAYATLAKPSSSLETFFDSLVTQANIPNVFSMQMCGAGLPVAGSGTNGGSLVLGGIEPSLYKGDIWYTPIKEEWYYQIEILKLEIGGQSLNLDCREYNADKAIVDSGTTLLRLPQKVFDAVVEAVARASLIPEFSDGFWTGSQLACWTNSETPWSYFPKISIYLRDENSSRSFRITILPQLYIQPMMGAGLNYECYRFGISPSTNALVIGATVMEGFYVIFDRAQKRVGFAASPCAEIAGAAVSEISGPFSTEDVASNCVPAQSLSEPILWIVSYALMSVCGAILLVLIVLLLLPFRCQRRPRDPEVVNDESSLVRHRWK

Cathepsin D = Cathepsin D (Homo sapiens, UniProt P07339)
Chain of Cathepsin D (P07339 65-162 limits assumed): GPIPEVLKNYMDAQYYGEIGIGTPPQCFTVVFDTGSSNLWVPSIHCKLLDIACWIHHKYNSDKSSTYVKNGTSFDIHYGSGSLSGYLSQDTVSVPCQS
Chain of Cathepsin D (P07339 169-412 limits assumed): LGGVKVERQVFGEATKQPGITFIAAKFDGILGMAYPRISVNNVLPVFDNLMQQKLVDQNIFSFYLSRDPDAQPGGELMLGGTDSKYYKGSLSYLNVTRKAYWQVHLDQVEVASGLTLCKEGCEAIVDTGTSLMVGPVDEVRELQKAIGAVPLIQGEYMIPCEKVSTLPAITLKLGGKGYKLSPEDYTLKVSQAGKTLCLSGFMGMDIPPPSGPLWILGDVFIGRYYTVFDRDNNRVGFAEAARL

Chain of Beta-secretase 1 (P56817 whole entry): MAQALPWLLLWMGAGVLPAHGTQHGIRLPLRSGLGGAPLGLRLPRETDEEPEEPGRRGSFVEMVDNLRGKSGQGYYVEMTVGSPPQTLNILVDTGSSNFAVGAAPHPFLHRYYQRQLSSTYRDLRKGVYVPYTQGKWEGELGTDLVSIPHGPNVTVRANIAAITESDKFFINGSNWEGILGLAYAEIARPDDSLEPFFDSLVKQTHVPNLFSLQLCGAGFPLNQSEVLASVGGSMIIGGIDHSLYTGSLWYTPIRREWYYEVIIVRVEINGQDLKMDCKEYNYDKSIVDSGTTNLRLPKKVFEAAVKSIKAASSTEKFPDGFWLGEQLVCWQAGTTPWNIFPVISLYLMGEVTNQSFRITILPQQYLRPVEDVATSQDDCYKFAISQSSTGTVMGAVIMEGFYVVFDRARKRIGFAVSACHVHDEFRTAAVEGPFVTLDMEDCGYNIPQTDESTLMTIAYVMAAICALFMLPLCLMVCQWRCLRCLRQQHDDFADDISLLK

| IC50 (Beta-secretase 1) [µM] | IC50 (Beta-secretase 2) [µM] | IC50 (Cathepsin D) [µM] | SMILES |
| --- | --- | --- | --- |
| 0.026 | 3.8 | 2.24 | CCN1CCN2CCS(=O)(=O)N(C)C3C=C(C(=O)N[C@@H](Cc4ccccc4)[C@H](O)CNCc4cccc(C(F)(F)F)c4)C=C1C32 (some centres not stated) [7,6,6 tricyclic sulfonamide, 10] |
| 0.028 | 1.86 | 1.57 | CCc1cn2c3c(cc(C(=O)N[C@@H](Cc4ccccc4)[C@H](O)CNCc4cccc(OC)c4)cc13)N(C)S(=O)(=O)CCC2 [8,6,5 tricyclic sulfonamide, 32] |
| 0.49 | 5.46 | 2.9 | CCc1cn2c3c(cc(C(=O)N[C@@H](Cc4ccccc4)[C@H](O)CNC4CC4)cc13)N(C)S(=O)(=O)CCC2 [8,6,5 tricyclic sulfonamide, 33] |

| SMILES | IC50 (Beta-secretase 1) [µM] | IC50 (Beta-secretase 2) [µM] | IC50 (Cathepsin D) [µM] |
| --- | --- | --- | --- |
| CCN1CCN2CCS(=O)(=O)N(C)C3C=C(C(=O)N[C@@H](Cc4ccccc4)[C@H](O)CNC4CC4)C=C1C32 (some centres not stated) [7,6,6 tricyclic sulfonamide, 19] | 0.55 | 16.2 | 26.3 |
